Literature values in patent KR20170036668A, “피부 발진의 예방 또는 치료용 약학 조성물” (주식회사 대웅제약, priority 2014, dated 2017).

Legend:
[1] = system: 피부 발진; conditions: prophylactic treatment; Jatoi A et al., Cancer 113:847-853

| Structure (SMILES) | Incidence of erlotinib related skin effect (ERSE) (NSCLC and PC clinical trials) | Proportion of patients with grade 3-4 ERSE (NSCLC and PC clinical trials) | Time to onset of rash after start of treatment (rash above the waist) | Improvement of skin rash versus placebo [1] |
| --- | --- | --- | --- | --- |
| C#Cc1cccc(Nc2ncnc3cc(OCCOC)c(OCCOC)cc23)c1 [엘로티닙] | 75% | ~10% | 7-10 일 | – |
| CN(C)[C@@H]1C(O)=C(C(N)=O)C(=O)[C@@]2(O)C(O)=C3C(=O)c4c(O)cccc4[C@@](C)(O)[C@H]3C[C@@H]12 [테트라사이클린] | – | – | – | 30% |
